What was measured:
Format in all cases: cell-based
[1] = test system: VZV (varicella zoster virus, strain ELLEN); test: Plaque reduction antiviral assay in WI-38 cell culture, VZV; conditions: Human alphaherpesvirus 3; WI-38 monolayers, at least 50% plaque reduction, 5 - 7 days incubation at 37°C; read-out: ID50(μM) for the following viruses VZV
Description: (§1) Assays were performed in cell culture systems to determine the concentrations of compounds that are effective in preventing several kinds of viral infections. HSV-1 (herpes simplex virus type 1, strain Schooler), HSV-2 (herpes simplex virus type 2, strain 186), VZV (varicella zoster virus, strain ELLEN), HCMV (human cytomegalovirus, strain AD 169). HSV-1, HSV-2, HCMV and VZV antiviral assays: Virus was adsorbed to WI-38 cell culture monolayers in 6 well culture plates (Costar, Cambridge, MA) for 1 hour prior to addition of maintenance medium containing duplicate dilutions of the test compound. Inhibition of plaque development was evaluated on fixed and stained monolayers after 4 days incubation at 37°C. for HSV-1 and HSV-2, and after 5 - 7 days incubation at 37°C. for HCMV and VZV. ID₅₀ values were determined from the drug concentration which conferred at least a 50% plaque reduction compared to virus controls.

[2] = Visible toxicity to the cell monolayers under the antiviral assay conditions; conditions: human, wi-38 cells; concentration at which toxicity was visible
Description: HSV-1, HSV-2, HCMV and VZV antiviral assays: Virus was adsorbed to WI-38 cell culture monolayers in 6 well culture plates (Costar, Cambridge, MA) for 1 hour prior to addition of maintenance medium containing duplicate dilutions of the test compound. Inhibition of plaque development was evaluated on fixed and stained monolayers after 4 days incubation at 37°C. for HSV-1 and HSV-2, and after 5 - 7 days incubation at 37°C. for HCMV and VZV. ID₅₀ values were determined from the drug concentration which conferred at least a 50% plaque reduction compared to virus controls.

[3] = test system: HSV-2 (herpes simplex virus type 2, strain 186); test: Plaque reduction antiviral assay in WI-38 cell culture, HSV-2; conditions: Human alphaherpesvirus 2, 96 h; WI-38 monolayers, at least 50% plaque reduction, 4 days incubation at 37°C; read-out: ID50(μM) for the following viruses HSV-2
Description: as §1

[4] = test system: HCMV (human cytomegalovirus, strain AD 169); test: Plaque reduction antiviral assay in WI-38 cell culture, HCMV; conditions: Human betaherpesvirus 5; WI-38 monolayers, at least 50% plaque reduction, 5 - 7 days incubation at 37°C; read-out: ID50(μM) for the following viruses HCMV
Description: as §1

[5] = test system: HSV-1 (herpes simplex virus type 1, strain Schooler); test: Plaque reduction antiviral assay in WI-38 cell culture, HSV-1; conditions: Human alphaherpesvirus 1, 96 h; WI-38 monolayers, at least 50% plaque reduction, 4 days incubation at 37°C; read-out: ID50(μM) for the following viruses HSV-1
Description: as §1

SMILES	IC50 [1]	MCC [2]	IC50 [3]	IC50 [4]	IC50 [5]
C=C1C(O)C(CO)CC1n1cnc2c(N)ncnc21 (stereo not drawn) [Example 2, (1α,2β,4α)-4-(6-Amino-9H-purin-9-yl)-2-hydroxy-3-methylenecyclopentanemethanol]	> 38 µM	383 µM	383 µM	> 38 µM	383 µM
C=C1C(O)C(CO)CC1n1cc(I)c(=O)[nH]c1=O (stereo not drawn) [Example 4, (1α,3β,4α)-1-[3-Hydroxy-4-(hydroxymethyl)-2-methylenecyclopentyl]-5-iodo-2,4(1H,3H)-pyrimidinedione]	275 µM	275 µM	> 275 µM	28 to 275 µM	> 275 µM
C=C1C(O)C(CO)CC1n1cc(C)c(=O)[nH]c1=O (stereo not drawn) [Example 3, (1α,3β,4α)-1-[3-Hydroxy-4-(hydroxymethyl)-2-methylenecyclopentyl]-5-methyl-2,4(1H,3H)-pyrimidinedione]	40 µM	396 µM	> 396 µM	> 396 µM	100 to 200 µM
C=C1C(O)C(CO)CC1n1cc(C=CBr)c(=O)[nH]c1=O (stereo not drawn) [Example 5, [1α(E),3β,4α]-5-[2-Bromoethenyl)-1-[3-hydroxy-4-(hydroxymethyl)-2-methylenecyclopentyl]-2,4-(1H,3H)-pyrimidinedione]	1.5 to 3 µM	291 µM	> 291 µM	–	291 µM
C=C1C(O)C(CO)CC1n1cnc2c(=O)[nH]c(N)nc21 (stereo not drawn) [Example 1, (1α,3β,4α)-2-Amino-1,9-dihydro-9-[3-hydroxy-4-(hydroxymethyl)-2-methylenecyclopentyl]-6H-purin-6-one]	7 to 18 µM	361 µM	7 to 18 µM	7 µM	4 to 7 µM
